Measurements from ChEMBL document CHEMBL1201862, “PubChem BioAssay data set” (2004).
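Results reflect a 48-hour exposure of cells in 96-well plates to compound at five concentrations. Abbreviation: GI50, concentration required for 50% inhibition of growth.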 Calls of active or inactive are those of the source. Rule as the data show it: active = GI50 up to about 1.1 µM and inactive = higher.

Tests used:
Assay in all cases: NCI-60 cell line screen, 48 h
[1] = test system: 786-0
[2] = test system: A549
[3] = test system: ACHN
[4] = test system: CAKI-1
[5] = test system: CCRF-CEM
[6] = test system: COLO 205
[7] = test system: DLD-1
[8] = test system: DMS-114
[9] = test system: DMS-273
[10] = test system: EKVX
[11] = test system: HCC 2998
[12] = test system: HCT-15
[13] = test system: HL-60
[14] = test system: HOP-62
[15] = test system: HOP-92
[16] = test system: HT-29
[17] = test system: IGROV-1
[18] = test system: K562
[19] = test system: KM-20L2
[20] = test system: KM12
[21] = test system: LOX IMVI
[22] = test system: LXFL 529
[23] = test system: M14
[24] = test system: M19-MEL
[25] = test system: MOLT-4
[26] = test system: Malme-3M
[27] = test system: NCI-H23
[28] = test system: NCI-H460
[29] = test system: NCI-H522
[30] = test system: OVCAR-3
[31] = test system: OVCAR-4
[32] = test system: OVCAR-5
[33] = test system: OVCAR-8
[34] = test system: RPMI-8226
[35] = test system: RXF 393
[36] = test system: RXF 631
[37] = test system: SF-268
[38] = test system: SF-295
[39] = test system: SK-MEL-28
[40] = test system: SK-MEL-2
[41] = test system: SK-MEL-5
[42] = test system: SK-OV-3
[43] = test system: SN12C
[44] = test system: SNB-19
[45] = test system: SNB-75
[46] = test system: SNB-78
[47] = test system: SW-620
[48] = test system: TK-10
[49] = test system: UACC-257
[50] = test system: UACC-62
[51] = test system: UO-31
[52] = test system: XF498
[53] = test system: A498
[54] = test system: HCT-116
[55] = test system: NCI-H226
[56] = test system: SF-539
[57] = test system: SR
[58] = test system: U-251
[59] = test system: HOP-18

Measured: GI50

CC(C)N1CCOC(c2ccc(O)c(O)c2)C1 (stereo unspecified)
> 100 µM: [12]
inactive: [1] > 100 µM | [2] > 100 µM | [3] > 100 µM | [4] > 100 µM | [5] > 100 µM | [6] > 100 µM | [7] > 100 µM | [8] > 100 µM | [9] > 100 µM | [10] > 100 µM | [11] > 100 µM | [13] > 100 µM | [14] > 100 µM | [15] > 100 µM | [16] > 100 µM | [17] > 100 µM | [18] > 100 µM | [19] > 100 µM | [20] > 100 µM | [21] > 100 µM | [22] > 100 µM | [23] > 100 µM | [24] > 100 µM | [25] > 100 µM | [26] > 100 µM | [27] > 100 µM | [28] > 100 µM | [29] > 100 µM | [30] > 100 µM | [31] > 100 µM | [32] > 100 µM | [33] > 100 µM | [34] > 100 µM | [35] > 100 µM | [36] > 100 µM | [37] > 100 µM | [38] > 100 µM | [39] > 100 µM | [40] > 100 µM | [41] > 100 µM | [42] > 100 µM | [43] > 100 µM | [44] > 100 µM | [45] > 100 µM | [46] > 100 µM | [47] > 100 µM | [48] > 100 µM | [49] > 100 µM | [50] > 100 µM | [51] > 100 µM | [52] > 100 µM

CN(C)/C=C/C(=CC=[N+](C)C)/C=C/N(C)C.[O-][Cl+3]([O-])([O-])[O-]
inactive: [1] > 100 µM | [53] 31.3 µM | [2] > 100 µM | [3] > 100 µM | [4] 70.3 µM | [5] 60.3 µM | [7] > 100 µM | [9] > 100 µM | [11] > 100 µM | [54] > 100 µM | [13] > 100 µM | [14] > 100 µM | [15] > 100 µM | [16] > 100 µM | [17] > 100 µM | [18] > 100 µM | [20] > 100 µM | [21] 57 µM | [22] > 100 µM | [23] > 100 µM | [25] 90.4 µM | [26] > 100 µM | [55] > 100 µM | [27] > 100 µM | [28] > 100 µM | [29] > 100 µM | [30] > 100 µM | [31] > 100 µM | [32] > 100 µM | [33] > 100 µM | [34] > 100 µM | [35] > 100 µM | [36] > 100 µM | [37] > 100 µM | [38] > 100 µM | [56] > 100 µM | [39] > 100 µM | [40] > 100 µM | [41] > 100 µM | [42] 16.7 µM | [43] > 100 µM | [44] > 100 µM | [46] > 100 µM | [57] > 100 µM | [47] > 100 µM | [48] > 100 µM | [58] > 100 µM | [49] > 100 µM | [50] > 100 µM | [51] > 100 µM | [52] > 100 µM

COc1cc([C@H]2Oc3c(c(O)cc4oc(-c5ccccc5)cc(=O)c34)O[C@@H]2CO)ccc1O
inactive: [1] 21.9 µM | [53] 67 µM | [4] 63.2 µM | [5] 4.34 µM | [6] 31.8 µM | [7] 16.6 µM | [8] 20 µM | [9] 8.83 µM | [11] 25.6 µM | [54] 21.5 µM | [13] 13.7 µM | [14] > 100 µM | [15] 31.7 µM | [17] 51.8 µM | [18] 21.6 µM | [22] 24.3 µM | [23] 17.5 µM | [24] 24.7 µM | [25] > 10 µM | [26] 24.2 µM | [55] 71.1 µM | [27] 38.5 µM | [28] 5.14 µM | [29] 19.1 µM | [31] 23.8 µM | [34] 7.53 µM | [36] 23.8 µM | [37] 11.7 µM | [56] > 100 µM | [39] 45.8 µM | [40] 22.8 µM | [42] 84.9 µM | [43] 35.9 µM | [45] 28.9 µM | [46] > 100 µM | [57] 8.87 µM | [50] 29.9 µM | [51] 31.9 µM | [52] 25.4 µM

C=C1CCCC2[C@](C)(CC3=C(O)C(=O)C=C(OC)C3=O)[C@@H](C)CC[C@]12C (stereo partly specified)
2.71 µM: [12]
inactive: [1] 2.64 µM | [53] 6.27 µM | [2] 2.86 µM | [3] 4.06 µM | [4] 3.62 µM | [5] 2.36 µM | [6] 7.35 µM | [7] 7.18 µM | [8] 1.99 µM | [10] 6.28 µM | [11] 7.89 µM | [54] 3.71 µM | [13] 2.4 µM | [59] 1.7 µM | [16] 10.9 µM | [17] 3.22 µM | [18] 4.07 µM | [19] 4.24 µM | [20] 2.72 µM | [21] 4.97 µM | [22] 6.04 µM | [23] 1.81 µM | [24] 1.81 µM | [26] 2.9 µM | [27] 3.05 µM | [28] 2.8 µM | [29] 6.82 µM | [30] 3.53 µM | [31] 5.65 µM | [33] 4.41 µM | [34] 2.74 µM | [35] 2.73 µM | [36] 9.62 µM | [37] 4.31 µM | [38] 2.51 µM | [56] 2.79 µM | [39] 3.99 µM | [40] 2.45 µM | [41] 2.42 µM | [42] 12.6 µM | [43] 10.5 µM | [45] 3.94 µM | [47] 3.01 µM | [48] 7.16 µM | [58] 4.06 µM | [49] 3.3 µM | [50] 2.22 µM | [52] 16.7 µM
